Measurements taken from ChEMBL document CHEMBL1201862, “PubChem BioAssay data set” (2004).
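All cell lines were grown in 96-well plates and treated with compound for 48 hours. Here, GI50 denotes the concentration required for 50% inhibition of growth.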 Active and inactive are the calls of the source. Cut-off read from the data, not from the text of the source: active = GI50 up to about 1.1 µM and inactive = higher.

Legend:
Assay in all cases: NCI tumour cell line growth inhibition, 48 h
HCT-15 = system: HCT-15
DMS-114 = system: DMS-114
HOP-92 = system: HOP-92
SNB-75 = system: SNB-75
786-0 = system: 786-0
KM12 = system: KM12
SK-OV-3 = system: SK-OV-3
RPMI-8226 = system: RPMI-8226
SK-MEL-2 = system: SK-MEL-2
COLO 205 = system: COLO 205
LOX IMVI = system: LOX IMVI
U-251 = system: U-251
SN12C = system: SN12C
IGROV-1 = system: IGROV-1
TK-10 = system: TK-10
SF-268 = system: SF-268
DU-145 = system: DU-145
NCI/ADR-RES = system: NCI/ADR-RES
SR = system: SR
PC-3 = system: PC-3

SMILES: C#CCN(Cc1ccc2nc(-c3ccccc3)c(Cl)nc2c1)c1cc(OC)c(OC)c(OC)c1
- GI50 (HCT-15): > 100 µM
- GI50 (DMS-114): 14.3 µM (inactive)
- GI50 (HOP-92): > 100 µM (inactive)
- GI50 (SNB-75): > 100 µM (inactive)
- GI50 (786-0): > 100 µM (inactive)
- GI50 (KM12): > 100 µM (inactive)
- GI50 (SK-OV-3): > 100 µM (inactive)
- GI50 (RPMI-8226): 16.1 µM (inactive)
- GI50 (SK-MEL-2): > 100 µM (inactive)
- GI50 (COLO 205): 57.1 µM (inactive)
- GI50 (LOX IMVI): 14.8 µM (inactive)
- GI50 (U-251): 27 µM (inactive)
- GI50 (SN12C): > 100 µM (inactive)
- GI50 (IGROV-1): > 100 µM (inactive)
- GI50 (TK-10): > 100 µM (inactive)
- GI50 (SF-268): 40.4 µM (inactive)

SMILES: COC(=O)C(C)Oc1ccc(O)cc1 (configuration not stated)
- GI50 (HCT-15): > 100 µM
- GI50 (DMS-114): 19.6 µM (inactive)
- GI50 (HOP-92): > 100 µM (inactive)
- GI50 (SNB-75): > 100 µM (inactive)
- GI50 (786-0): > 100 µM (inactive)
- GI50 (KM12): > 100 µM (inactive)
- GI50 (SK-OV-3): > 100 µM (inactive)
- GI50 (RPMI-8226): > 100 µM (inactive)
- GI50 (COLO 205): > 100 µM (inactive)
- GI50 (U-251): > 100 µM (inactive)
- GI50 (SN12C): > 100 µM (inactive)
- GI50 (IGROV-1): > 100 µM (inactive)
- GI50 (TK-10): > 100 µM (inactive)
- GI50 (SF-268): 20.6 µM (inactive)

SMILES: CC1=NN2C(=N)/C(=C/c3ccc(F)cc3)C(=O)N=C2S1
- GI50 (HCT-15): > 100 µM
- GI50 (HOP-92): 47.9 µM (inactive)
- GI50 (SNB-75): > 100 µM (inactive)
- GI50 (786-0): > 100 µM (inactive)
- GI50 (KM12): > 100 µM (inactive)
- GI50 (SK-OV-3): > 100 µM (inactive)
- GI50 (RPMI-8226): > 100 µM (inactive)
- GI50 (SK-MEL-2): > 100 µM (inactive)
- GI50 (COLO 205): > 100 µM (inactive)
- GI50 (LOX IMVI): > 100 µM (inactive)
- GI50 (DU-145): > 100 µM (inactive)
- GI50 (U-251): > 100 µM (inactive)
- GI50 (NCI/ADR-RES): 13 µM (inactive)
- GI50 (SN12C): > 100 µM (inactive)
- GI50 (SR): 69.8 µM (inactive)
- GI50 (IGROV-1): > 100 µM (inactive)
- GI50 (PC-3): > 100 µM (inactive)
- GI50 (TK-10): > 100 µM (inactive)
- GI50 (SF-268): > 100 µM (inactive)

SMILES: O=[N+]([O-])c1cccnc1NCC1(CO)CC(Cc2ccccc2)C1 (configuration not stated)
- GI50 (HCT-15): > 100 µM
- GI50 (HOP-92): 11.1 µM (inactive)
- GI50 (SNB-75): > 100 µM (inactive)
- GI50 (786-0): > 100 µM (inactive)
- GI50 (KM12): > 100 µM (inactive)
- GI50 (SK-OV-3): > 100 µM (inactive)
- GI50 (RPMI-8226): 99.8 µM (inactive)
- GI50 (SK-MEL-2): > 100 µM (inactive)
- GI50 (COLO 205): > 100 µM (inactive)
- GI50 (LOX IMVI): > 100 µM (inactive)
- GI50 (DU-145): > 100 µM (inactive)
- GI50 (U-251): > 100 µM (inactive)
- GI50 (NCI/ADR-RES): > 100 µM (inactive)
- GI50 (SN12C): > 100 µM (inactive)
- GI50 (SR): > 100 µM (inactive)
- GI50 (IGROV-1): > 100 µM (inactive)
- GI50 (PC-3): > 100 µM (inactive)
- GI50 (TK-10): > 100 µM (inactive)
- GI50 (SF-268): > 100 µM (inactive)

SMILES: C1CN2N3CCCC23C1 (configuration not stated)
- GI50 (HCT-15): > 100 µM
- GI50 (DMS-114): > 100 µM (inactive)
- GI50 (SNB-75): > 100 µM (inactive)
- GI50 (786-0): > 100 µM (inactive)
- GI50 (KM12): > 100 µM (inactive)
- GI50 (SK-OV-3): > 100 µM (inactive)
- GI50 (RPMI-8226): > 100 µM (inactive)
- GI50 (SK-MEL-2): > 100 µM (inactive)
- GI50 (COLO 205): > 100 µM (inactive)
- GI50 (LOX IMVI): > 100 µM (inactive)
- GI50 (U-251): > 100 µM (inactive)
- GI50 (SN12C): > 100 µM (inactive)
- GI50 (SR): > 100 µM (inactive)
- GI50 (IGROV-1): > 100 µM (inactive)
- GI50 (TK-10): > 100 µM (inactive)
- GI50 (SF-268): > 100 µM (inactive)

SMILES: O=C1Cc2ccccc2N1/N=C\c1ccc(O)cc1
- GI50 (HCT-15): 91 µM
- GI50 (DMS-114): 21.8 µM (inactive)
- GI50 (HOP-92): > 100 µM (inactive)
- GI50 (SNB-75): 18.1 µM (inactive)
- GI50 (786-0): > 100 µM (inactive)
- GI50 (KM12): > 100 µM (inactive)
- GI50 (SK-OV-3): > 100 µM (inactive)
- GI50 (RPMI-8226): 58.1 µM (inactive)
- GI50 (SK-MEL-2): > 100 µM (inactive)
- GI50 (COLO 205): > 100 µM (inactive)
- GI50 (LOX IMVI): > 100 µM (inactive)
- GI50 (U-251): > 100 µM (inactive)
- GI50 (SN12C): > 100 µM (inactive)
- GI50 (IGROV-1): > 100 µM (inactive)
- GI50 (TK-10): > 100 µM (inactive)
- GI50 (SF-268): 50.6 µM (inactive)

SMILES: O=C(/C=C/c1ccccc1O)c1ccc([N+](=O)[O-])cc1
- GI50 (HCT-15): 17 µM
- GI50 (DMS-114): 10.3 µM (inactive)
- GI50 (HOP-92): 26.6 µM (inactive)
- GI50 (SNB-75): 7.8 µM (inactive)
- GI50 (786-0): 17.3 µM (inactive)
- GI50 (KM12): 18.5 µM (inactive)
- GI50 (SK-OV-3): 26.8 µM (inactive)
- GI50 (SK-MEL-2): 19.8 µM (inactive)
- GI50 (COLO 205): 12.5 µM (inactive)
- GI50 (LOX IMVI): 15.8 µM (inactive)
- GI50 (U-251): 14.6 µM (inactive)
- GI50 (SN12C): 15.5 µM (inactive)
- GI50 (SR): 19.4 µM (inactive)
- GI50 (IGROV-1): 12.9 µM (inactive)
- GI50 (TK-10): 26.7 µM (inactive)
- GI50 (SF-268): 18 µM (inactive)

SMILES: Cc1ccc2nc(NC(=O)C(=O)C(C#N)c3ccc(Cl)cc3)sc2c1 (configuration not stated)
- GI50 (HCT-15): > 50 µM
- GI50 (DMS-114): > 50 µM (inactive)
- GI50 (HOP-92): > 50 µM (inactive)
- GI50 (SNB-75): > 50 µM (inactive)
- GI50 (786-0): > 50 µM (inactive)
- GI50 (KM12): > 50 µM (inactive)
- GI50 (SK-OV-3): > 50 µM (inactive)
- GI50 (RPMI-8226): > 50 µM (inactive)
- GI50 (SK-MEL-2): > 50 µM (inactive)
- GI50 (COLO 205): > 50 µM (inactive)
- GI50 (LOX IMVI): > 50 µM (inactive)
- GI50 (U-251): > 50 µM (inactive)
- GI50 (SN12C): > 50 µM (inactive)
- GI50 (IGROV-1): > 50 µM (inactive)
- GI50 (TK-10): > 50 µM (inactive)
- GI50 (SF-268): > 50 µM (inactive)
